According to PMC4879371, “Antitrypanosomal Activities and Mechanisms of Action of Novel Tetracyclic Iridoids from Morinda lucida Benth” (Antimicrobial Agents and Chemotherapy, 2016):

What was measured:
[1] = test system: GUTat 3.1 strain of the bloodstream form of T. brucei brucei; assay: alamarBlue in vitro viability test for trypanosome parasites; type: cell-based; conditions: Trypanosoma brucei, 48 h of incubation, read-out: IC50, antitrypanosomal activity
Procedure: The GUTat 3.1 strain of the bloodstream form of T. brucei brucei parasites was used in this study. Parasites were cultured in vitro according to the conditions established previously ([36]). Parasites were used when they reached a confluent concentration of 1 × 10^6 parasites/ml. Estimation of parasitemia was done with the Neubauer counting chamber. Parasites were diluted to a concentration of 3 × 10^5 parasites/ml with HM1-9 medium and were used for the various experiments.
The alamarBlue assay (Life Technologies, USA) was carried out on treated or untreated trypanosome parasites to ascertain their viability. The assay was performed in a 96-well plate following the manufacturer's instructions with modification. Briefly, 1.5 × 10^4 parasites were seeded with varied concentrations of plant material (extracts, fractions, or compounds) ranging from 0.78 μg/ml to […]. Final concentrations of EtOH and dimethyl sulfoxide (DMSO) were kept at <1% and 0.1%, respectively. After incubation of parasites with or without plant extracts or compounds for 24 h at 37°C in 5% CO2, 10% alamarBlue dye was added, and the parasites were incubated another 24 h in darkness. After a total of 48 h, the plate was read for absorbance at 540 nm using the Tecan Sunrise Wako spectrophotometer. The trend curve was drawn to obtain a 50% inhibitory concentration (IC50) of each plant material (extracts, fractions, and compounds).

Plasmodium falciparum = assay: Preliminary in vitro anti-Plasmodium activity; type: cell-based; conditions: preliminary studies, unpublished data
[2] = test system: four human normal cell lines (NB1RGB, HF-19, Chang Liver, Hs888Lu); assay: MTT cytotoxicity assay, all cell lines tested; type: cell-based
Procedure: The cytotoxicity of the compounds to mammalian cells were determined using four human normal cell lines, namely, NB1RGB (skin fibroblast) and HF-19 (lung fibroblast) obtained from the RIKEN Bio Resource Center Cell Bank (Japan) and Chang Liver and Hs888Lu (lung) obtained from the European Collection of Authenticated Cell Cultures (ECACC). NB1RGB and HF-19 were maintained in minimum essential medium-α (MEM-α). Chang Liver and Hs888Lu were grown in Eagle's minimum essential medium (EMEM) and RPMI 1640, respectively. All of these media were supplemented with 10% fetal bovine serum (FBS) and 1% penicillin-streptomycin and were then incubated at 37°C under 5% CO2 in fully humidified conditions.
Cytotoxicity was determined using a 3-(4,5-dimethylthiazol-2-yl)-2,5-diphenyltetrazolium bromide (MTT) assay. The cells were treated with molucidin, ML-2-3, or ML-F52 at concentrations of ≤50 μM for 48 h. Cells were plated at a density of 0.5 × 10^4 cells/well into 96-well plates. After 24 h of incubation, cells were treated with various concentrations of each of the purified compounds for 48 h. Then, MTT solution was added to each well, and the cells were incubated for another 4 h. The precipitated MTT-formazan product was dissolved in 0.04 N HCl-isopropanol, and the amount of formazan was measured at a wavelength of 595 nm by a microplate reader (Immuno Mini NJ-2300; Nihon InterMed, Tokyo, Japan). Cytotoxicity was calculated as the percentage of live cells relative to the control culture. The selectivity index (SI) was expressed as the ratio of the IC50 obtained for mammalian cells and the IC50 for trypanosomes.

[3] = test system: T. brucei brucei (TC-221 strain); type: in vivo; conditions: for survival of mice / death, days postinfection: vehicle control died at day 9
Procedure: Six-week-old BALB/c female mice with an average weight of 20 g were infected with 1 × 10^3 cells of T. brucei brucei (TC-221 strain) and were randomly grouped into four cages containing five mice each. The first 3 groups were treated with 30 mg/kg of body weight of molucidin, ML-2-3, and ML-F52, respectively, 6 h postinfection and continued daily afterward for 5 consecutive days. The last group received physiological saline containing <0.1% of DMSO as a vehicle control. Parasitemia and weight were monitored daily until 20 days postinfection. The experiments were conducted in compliance with the internationally accepted principles for laboratory animal use and care as contained in the Canadian Council on Animal Care guidelines on animal use protocol review.

[4] = test system: Trypanosoma brucei parasites; assay: FACS cell cycle assay, time course; type: cell-based
Procedure: Seeding and incubation of parasites with compounds were done under the same conditions as those for the alamarBlue assay as described above without addition of the alarmarBlue reagent. In this case, after 24 h of incubation, Guava reagents for Nexin and cell cycle assays were added, and each assay was performed using the Millipore Guava easyCyte 5HT fluorescence-activated cell sorter (FACS) machine according to the manufacturer's instruction. The Nexin assay and subsequent FACS analysis allowed for detection of markers of apoptosis induction by the plant materials. Similarly, the cell cycle assay and subsequent FACS analysis allowed for detection of markers of cell cycle alteration by the plant materials.
To investigate the sequence in which the events (apoptosis induction, PFR-2 suppression, and cell cycle alteration) involved in mechanisms of action occur, we examined the time course for the three events using ML-2-3-treated parasites. Trypanosoma brucei parasites were incubated for 0, 0.5, 1.5, 3, 6, and 24 h with 15 μM ML-2-3 and were then subjected to both Nexin assay and Western blot analyses using the PFR-2 antibody. We further investigated the time course of cell cycle alteration using ML-2-3-treated parasites at similar concentrations and incubation periods.

Plasmodium yoelii = assay: Preliminary in vivo studies against Plasmodium yoelii; conditions: BALB/c mice, unpublished data
[5] = 30 mg/kg intraperitoneally, 5 consecutive days

Compound | IC50 [1] | anti-Plasmodium activity in vitro (Plasmodium falciparum) | selectivity index (SI) for all of the cell lines [2] | cytotoxicity among all cell lines ([2]; ≤50 μM, 48 h) | survival of mice / death, days postinfection [3, 5] | time of exposure to significant changes in cell cycle ([4]; 15 μM ML-2-3) | S-phase cells ([4]; 15 μM, 0.5 h to 24 h) | G2/M-phase cells ([4]; 15 μM, within 0.5 h of exposure, decreased from 31%) | cure for 20 days postinfection [3, 5] | efficacy against Plasmodium yoelii in vivo (Plasmodium yoelii) | toxicity in mice ([3]; mouse, in vivo)
COc1cc(/C=C2/C(=O)O[C@]34C=C[C@@H]5C(C(=O)O)=CO[C@H](O[C@@H]23)[C@@H]54)ccc1O [ML-2-3] | 3750 nM | anti-Plasmodium activities | > 10 | did not show any cytotoxicity | 9 days | ≤ 0.5 h | stayed stable | 9% | – | – | –
CCOC(=O)C1=CO[C@@H]2O[C@H]3/C(=C\c4ccc(O)c(OC)c4)C(=O)O[C@]34C=C[C@H]1[C@H]24 [ML-F52] | 430 nM | anti-Plasmodium activities | > 10 | – | 20 days | – | – | – | 100% | – | –
COC(=O)C1=CO[C@@H]2O[C@H]3/C(=C\c4ccc(O)c(OC)c4)C(=O)O[C@]34C=C[C@H]1[C@H]24 [molucidin] | 1270 nM | anti-Plasmodium activities | – | – | – | – | – | – | – | significant efficacy | severe toxicity
